Source: patent US11339128B2 (Firmenich Incorporated, priority 2014, dated 2022)

Columns and labels:
T1R2/T1R3 taste receptor = target: T1, T1R2/T1R3 taste receptor (Homo sapiens, UniProt Q7RTX0+Q8TE23); assay: Receptor-based assay: sweetener EC50 enhancement ratio with and without test compound; assay type: cell-based; details: for Sucrose Enhancement EC50 Ratio: sweetener sucrose; for Fructose Enhancement EC50 Ratio: sweetener fructose; for Sucralose Enhancement EC50 Ratio: sweetener sucralose
T1 sequence (Q8TE23 20-839): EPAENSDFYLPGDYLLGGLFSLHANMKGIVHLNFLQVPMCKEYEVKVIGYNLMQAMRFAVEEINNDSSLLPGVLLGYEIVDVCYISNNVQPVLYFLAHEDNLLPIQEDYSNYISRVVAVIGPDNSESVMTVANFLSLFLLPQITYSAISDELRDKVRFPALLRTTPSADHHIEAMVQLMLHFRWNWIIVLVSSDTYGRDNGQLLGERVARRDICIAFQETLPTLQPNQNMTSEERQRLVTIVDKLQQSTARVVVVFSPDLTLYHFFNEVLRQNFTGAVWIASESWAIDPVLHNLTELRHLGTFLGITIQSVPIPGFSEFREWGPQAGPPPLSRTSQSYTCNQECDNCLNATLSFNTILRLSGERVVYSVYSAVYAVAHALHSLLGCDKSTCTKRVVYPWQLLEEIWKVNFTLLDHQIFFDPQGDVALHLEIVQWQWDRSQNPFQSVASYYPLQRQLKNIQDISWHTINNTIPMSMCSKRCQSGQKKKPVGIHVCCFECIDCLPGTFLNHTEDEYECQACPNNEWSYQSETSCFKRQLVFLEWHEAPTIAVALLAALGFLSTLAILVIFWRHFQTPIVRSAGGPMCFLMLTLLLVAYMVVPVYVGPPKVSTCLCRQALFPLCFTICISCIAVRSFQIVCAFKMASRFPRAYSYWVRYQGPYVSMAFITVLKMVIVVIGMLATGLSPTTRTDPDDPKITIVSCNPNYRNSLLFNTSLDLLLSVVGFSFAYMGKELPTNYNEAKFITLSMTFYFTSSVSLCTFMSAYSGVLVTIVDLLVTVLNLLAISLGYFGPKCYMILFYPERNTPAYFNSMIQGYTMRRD
T1 sequence (Q7RTX0 21-852): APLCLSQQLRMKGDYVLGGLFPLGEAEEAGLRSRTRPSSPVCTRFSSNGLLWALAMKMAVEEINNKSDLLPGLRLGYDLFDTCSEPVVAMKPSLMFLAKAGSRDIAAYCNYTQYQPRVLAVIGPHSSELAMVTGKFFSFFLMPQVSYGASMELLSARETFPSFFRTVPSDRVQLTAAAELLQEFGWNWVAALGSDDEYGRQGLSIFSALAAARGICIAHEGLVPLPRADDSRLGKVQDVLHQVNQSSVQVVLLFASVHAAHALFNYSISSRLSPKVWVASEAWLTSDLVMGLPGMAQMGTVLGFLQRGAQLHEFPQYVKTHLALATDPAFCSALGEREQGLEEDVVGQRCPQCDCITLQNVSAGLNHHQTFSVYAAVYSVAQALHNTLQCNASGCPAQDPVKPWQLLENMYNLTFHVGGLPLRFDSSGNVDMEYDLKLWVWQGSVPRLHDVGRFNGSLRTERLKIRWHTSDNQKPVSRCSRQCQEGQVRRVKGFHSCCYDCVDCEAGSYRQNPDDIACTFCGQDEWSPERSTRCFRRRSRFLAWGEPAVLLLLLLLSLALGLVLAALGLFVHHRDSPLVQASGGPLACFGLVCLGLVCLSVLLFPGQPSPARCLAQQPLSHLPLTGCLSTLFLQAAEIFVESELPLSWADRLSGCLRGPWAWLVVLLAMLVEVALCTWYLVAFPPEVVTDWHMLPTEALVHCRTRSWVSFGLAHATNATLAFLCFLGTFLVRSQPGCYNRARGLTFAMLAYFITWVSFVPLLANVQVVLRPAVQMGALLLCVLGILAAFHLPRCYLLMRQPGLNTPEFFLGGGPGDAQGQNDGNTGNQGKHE
Summary of the method: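 Sweetener (sucrose, sucralose, fructose) EC50 measured alone and with 1, 3, 10 or 50 μM test compound. Enhancement ratio = EC50 without/with compound; A = >1 to <10, B = 10–20, C = >20.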

[1] = Sensory paired-comparison sweetness test of sweetener (sucrose or high-fructose corn syrup) with test compound; assay type: in vivo, human; details: test compound 10 ppm or less with 6% sucrose, low sodium buffer pH 7.1; sucrose-alone concentration of equivalent perceived sweetness
Description: Test samples containing either a sweetener (sucrose or high-fructose corn syrup) alone or in combination with a test compound were presented in pairs to a group of panelist who were asked to determine which of the samples was sweeter. Subjects refrained from eating or drinking (except water) for at least 1 hour prior to the test. Subjects rinsed with water several times to clean the mouth. The samples within a paired comparison test were presented in a randomized, counterbalanced order. Panelists had up to a 1 minute delay between taste tests to clear the mouth of any tastes. Binomial probability tables were used to determine the probability of the correct number of responses occurring for each test at alpha-0.05.
Stock solutions of test compounds were prepared at 1000× final concentration with ethanol to ensure dispersion in solution. Test compound samples including sucrose were prepared by diluting the stock solutions in a low sodium buffer (0.952 g of KCl, 5.444 g of Na2HPO4, and 0.952 g of KH2PO4 in deionized ultrafiltered water) at pH 7.1 and containing sucrose. Test compound samples including high fructose corn syrup were prepared by diluting the stock solutions in the low sodium buffer at pH 2.8 (using citric acid to adjust the pH) and containing high fructose corn syrup. Control samples were balanced to 0.1% ethanol final.
In samples containing the test compound, the test compound was present at a concentration of 10 ppm or less and the concentration of sucrose was 6%. This table indicates the sucrose-alone concentration having a perceived sweetness intensity equivalent to the sweetness intensity of the combination of test compound and sucrose. An “A” value indicates an equivalent sucrose concentration greater than 6% and less than 10%. A “B” value indicates an equivalent sucrose concentration of 10% or greater. […]

Row | Structure (SMILES) | Sucrose Enhancement EC50 Ratio (T1R2/T1R3 taste receptor; 1 μM test compound) | Sucrose Enhancement EC50 Ratio (T1R2/T1R3 taste receptor; 3 μM test compound) | Fructose Enhancement EC50 Ratio (T1R2/T1R3 taste receptor; 10 μM test compound) | Sucralose Enhancement EC50 Ratio (T1R2/T1R3 taste receptor; 10 μM test compound) | Sucrose Enhancement EC50 Ratio (T1R2/T1R3 taste receptor; 10 μM test compound) | Equivalent Sucrose Conc. [1] | Sucralose Enhancement EC50 Ratio (T1R2/T1R3 taste receptor; 3 μM test compound) | Fructose Enhancement EC50 Ratio (T1R2/T1R3 taste receptor; 50 μM test compound)
1 | COC[C@H]1CC[C@H](Oc2cccc3nc(C)c(C(=O)O)c(N)c23)CC1 [Compound 101, 4-Amino-5-((trans-4-(methoxymethyl)cyclohexyl)oxy)-2-methylquinoline-3-carboxylic acid] | C (an enhancement ratio greater than 20) | C (an enhancement ratio greater than 20) | A (an enhancement ratio of greater than 1 and less than 10) | C (an enhancement ratio greater than 20) | C (an enhancement ratio greater than 20) | A (an equivalent sucrose concentration greater than 6% and less than 10%) | – | –
2 | CCc1nc2cccc(O[C@H]3CC[C@H](C)CC3)c2c(N)c1C(=O)O [Compound 201] | A (an enhancement ratio of greater than 1 and less than 10) | B (an enhancement ratio from 10 to 20) | – | – | – | A (an equivalent sucrose concentration greater than 6% and less than 10%) | – | –
3 | CCCOCC(=O)N[C@H]1CC[C@H](Oc2cccc3nc(C)c(C(=O)O)c(N)c23)CC1 [Compound 305] | B (an enhancement ratio from 10 to 20) | A (an enhancement ratio of greater than 1 and less than 10) | – | C (an enhancement ratio greater than 20) | A (an enhancement ratio of greater than 1 and less than 10) | B (an equivalent sucrose concentration of 10% or greater) | – | –
4 | Cc1nc2cccc(O[C@H]3CC[C@H](NC(=O)COC(C)C)CC3)c2c(N)c1C(=O)O [Compound 306] | B (an enhancement ratio from 10 to 20) | A (an enhancement ratio of greater than 1 and less than 10) | – | A (an enhancement ratio of greater than 1 and less than 10) | A (an enhancement ratio of greater than 1 and less than 10) | B (an equivalent sucrose concentration of 10% or greater) | – | –
5 | Cc1nc2cccc(O[C@H]3CC[C@H](NC(=O)COCC(C)C)CC3)c2c(N)c1C(=O)O [Compound 307] | A (an enhancement ratio of greater than 1 and less than 10) | C (an enhancement ratio greater than 20) | – | – | – | B (an equivalent sucrose concentration of 10% or greater) | B (an enhancement ratio from 10 to 20) | –
6 | COc1cc(OC)nc(N[C@H]2CC[C@H](Oc3cccc4nc(C)c(C(=O)O)c(N)c34)CC2)n1 [Compound 710] | A (an enhancement ratio of greater than 1 and less than 10) | A (an enhancement ratio of greater than 1 and less than 10) | A (an enhancement ratio of greater than 1 and less than 10) | B (an enhancement ratio from 10 to 20) | B (an enhancement ratio from 10 to 20) | – | A (an enhancement ratio of greater than 1 and less than 10) | A (an enhancement ratio of greater than 1 and less than 10)
7 | CCc1cnc(N[C@H]2CC[C@H](Oc3cccc4nc(C)c(C(=O)O)c(N)c34)CC2)nc1 [Compound 711] | A (an enhancement ratio of greater than 1 and less than 10) | A (an enhancement ratio of greater than 1 and less than 10) | A (an enhancement ratio of greater than 1 and less than 10) | B (an enhancement ratio from 10 to 20) | B (an enhancement ratio from 10 to 20) | – | B (an enhancement ratio from 10 to 20) | A (an enhancement ratio of greater than 1 and less than 10)
8 | Cc1cc(N[C@H]2CC[C@H](Oc3cccc4nc(C)c(C(=O)O)c(N)c34)CC2)nc(N)n1 [Compound 712] | A (an enhancement ratio of greater than 1 and less than 10) | B (an enhancement ratio from 10 to 20) | A (an enhancement ratio of greater than 1 and less than 10) | C (an enhancement ratio greater than 20) | C (an enhancement ratio greater than 20) | – | B (an enhancement ratio from 10 to 20) | A (an enhancement ratio of greater than 1 and less than 10)
9 | Cc1nc2cccc(O[C@H]3CC[C@H](Nc4cnccn4)CC3)c2c(N)c1C(=O)O [Compound 713] | A (an enhancement ratio of greater than 1 and less than 10) | B (an enhancement ratio from 10 to 20) | A (an enhancement ratio of greater than 1 and less than 10) | B (an enhancement ratio from 10 to 20) | B (an enhancement ratio from 10 to 20) | – | A (an enhancement ratio of greater than 1 and less than 10) | A (an enhancement ratio of greater than 1 and less than 10)
10 | Cc1nccc(N[C@H]2CC[C@H](Oc3cccc4nc(C)c(C(=O)O)c(N)c34)CC2)n1 [Compound 714] | A (an enhancement ratio of greater than 1 and less than 10) | A (an enhancement ratio of greater than 1 and less than 10) | A (an enhancement ratio of greater than 1 and less than 10) | A (an enhancement ratio of greater than 1 and less than 10) | A (an enhancement ratio of greater than 1 and less than 10) | – | A (an enhancement ratio of greater than 1 and less than 10) | A (an enhancement ratio of greater than 1 and less than 10)
